From patent US7265130B2, “NPY Y5 antagonist” (Shionogi & Co., Ltd., priority 1999, dated 2007)

Key:
human NPY Y5 receptor [1] = molecular target: T1, human NPY Y5 receptor (Homo sapiens, UniProt Q15761); assay: cAMP production inhibitory activity in CHO cells; format: cell-based; conditions: against 50 nM NPY inhibition of forskolin stimulated cAMP, CHO cells expressing human NPY Y5 receptor
T1 construct: expressed in transfected cells
T1 sequence (Q15761 1-445): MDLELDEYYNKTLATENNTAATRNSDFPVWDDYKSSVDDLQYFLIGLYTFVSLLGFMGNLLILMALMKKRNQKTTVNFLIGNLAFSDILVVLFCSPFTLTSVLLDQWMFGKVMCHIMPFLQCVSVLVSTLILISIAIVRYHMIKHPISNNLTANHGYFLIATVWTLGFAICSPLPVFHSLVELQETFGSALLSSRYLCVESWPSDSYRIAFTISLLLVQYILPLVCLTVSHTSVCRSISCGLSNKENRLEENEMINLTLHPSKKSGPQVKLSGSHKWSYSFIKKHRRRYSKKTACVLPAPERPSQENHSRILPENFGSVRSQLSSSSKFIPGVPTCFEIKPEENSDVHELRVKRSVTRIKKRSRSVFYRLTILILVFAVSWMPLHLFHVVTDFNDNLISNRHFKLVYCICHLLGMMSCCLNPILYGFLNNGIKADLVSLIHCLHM
Experimental: Experiment 2 cAMP production inhibitory activity in CHO cells
After CHO cells expressing human NPY Y5 receptor were incubated in the presence of 2.5 mM isobutylmethylxanthine (SIGMA) at 37° C. for 20 min., the compound of the present invention was added and incubated for 5 min. Then, 50 nM NPY and 10 μM forskolin (SIGMA) were added to the cells and incubated for 30 min. After the reaction was terminated by adding 1N HCl, the amount of cAMP in the supernatant was measured with EIA kit (Amersham LIFE SCIENCE).

human NPY Y5 receptor [2] = molecular target: T1, human NPY Y5 receptor; assay: Affinity for NPY Y5 receptor ([125I] peptide YY binding, CHO cell membranes); conditions: inhibition of specific [125I] peptide YY binding, membranes of CHO cells expressing NPY Y5 receptor
Source text: Experiment 1 Affinity for NPY Y5 Receptor
cDNA sequence encoding a human NPY Y5 receptor (WO096/16542) was cloned in the expression vector pME18S (Takebe et al. Mol. Cell. Biol. 8, 8957). The obtained expression vector was transfected into a host CHO cells by using a Lipofect AMINE reagent (Trademark, Gibco BRL Co., Ltd.) according to an instruction protocol to obtain the cells that stably express NPY Y5 receptor.
The membranes prepared from the above CHO cells expressing NPY Y5 receptor, the compound of the present invention and 30,000 cpm [^125I] peptide YY (60 pM of final concentration: Amersham) were incubated in the assay buffer (20 mM HEPES-Hanks buffer containing 0.1% bovine serum albumin, pH 7.4) at 25° C. for 2 hours, and then the mixture was filtered with a glassfilter GF/C treated with polyethyleneimine. After the glassfilter was washed with 50 mM Tris-HCl buffer (pH 7.4), the radioactivity on the filter was measured with a gamma counter. The non-specific binding was detected in the presence of 200 nM of peptide YY. The 50% inhibitory concentration of the test compound against the specific peptide YY binding (IC50 value) was calculated (Inui, A. et al. Endocrinology 131, 2090-2096 (1992)).

Row | Compound | IC50 (human NPY Y5 receptor [1]) [nM] | IC50 (human NPY Y5 receptor [2]) [nM]
1 | CCCCOc1ccc(NC(=O)C2CCC(NS(=O)(=O)C(C)(C)C)CC2)cc1O (centres unmarked) [Compound I-166] | 9.7 | 0.37
2 | CCCCOc1ccc(NC(=O)C2CCC(NS(=O)(=O)C(C)(C)C)CC2)cn1 (centres unmarked) [Compound I-167] | 39 | 0.72
3 | CC(C)(C)S(=O)(=O)NC1CCC(C(=O)Nc2ccc(Oc3ccccc3)nc2)CC1 (centres unmarked) [Compound I-168] | 32 | 2.1
4 | CCCCOc1ccc(NC(=O)C2CCC(NS(=O)(=O)C(C)(C)C)CC2)c([N+](=O)[O-])c1 (centres unmarked) [Compound I-171] | 71 | 2.4
5 | CCCCOc1ccc(NC(=O)C2CCC(NS(=O)(=O)C(C)(C)C)CC2)c(N)c1 (centres unmarked) [Compound I-172] | 36 | 0.91
6 | CCCCOc1cccc(CNC(=O)C2CCC(NS(=O)(=O)C(C)(C)C)CC2)c1 (centres unmarked) [Compound I-187] | 13 | 0.58
7 | CCCCOc1cccc(CONC(=O)C2CCC(NS(=O)(=O)C(C)(C)C)CC2)c1 (centres unmarked) [Compound I-191] | 11 | 1.1
8 | CCOc1ccc(NC(=O)C2CCC(NS(=O)(=O)C(C)(C)C)CC2)cc1OCC (centres unmarked) [Compound I-196] | 6.8 | 1.4
9 | CC(=O)c1cccc(NC(=O)C2CCC(NS(=O)(=O)C(C)(C)C)CC2)c1 (centres unmarked) [Compound I-197] | 38 | 6.7
10 | CC(C)(C)S(=O)(=O)NC1CCC(C(=O)Nc2ccc3c(c2)CCC3=NO)CC1 (centres unmarked) [Compound I-198] | 33 | 7.2
11 | CC(C)(C)S(=O)(=O)NC1CCC(C(=O)Nc2cccc(N3CCOCC3)c2)CC1 (centres unmarked) [Compound I-199] | 31 | 4.8
12 | CC(C)(C)S(=O)(=O)NC1CCC(C(=O)Nc2ccc3c(c2)OCCO3)CC1 (centres unmarked) [Compound I-202] | 67 | 6.7
13 | CC(C)(C)S(=O)(=O)NC1CCC(C(=O)Nc2ccc(Cc3ccncc3)cc2)CC1 (centres unmarked) [Compound I-206] | 54 | 5.9
14 | CC(C)(C)S(=O)(=O)NC1CCC(C(=O)Nc2ccc3ncsc3c2)CC1 (centres unmarked) [Compound I-207] | 23 | 4.6
15 | CC(C)(C)S(=O)(=O)NC1CCC(C(=O)Nc2ccc3sccc3c2)CC1 (centres unmarked) [Compound I-210] | 13 | 1.1
16 | CC(C)(C)S(=O)(=O)NC1CCC(C(=O)Nc2nnc(-c3ccc(F)cc3)s2)CC1 (centres unmarked) [Compound I-213] | 4 | 0.44
17 | C[C@@H]1CN(c2cccc(NC(=O)C3CCC(NS(=O)(=O)C(C)(C)C)CC3)c2)C[C@H](C)O1 (some centres unmarked) [Ia-4] | 15 | 1.4
18 | Cc1ccc(NC(=O)C2CCC(NS(=O)(=O)C(C)(C)C)CC2)cc1 (centres unmarked) [Ia-8] | 34 | 2.9
19 | CCc1ccc(NC(=O)C2CCC(NS(=O)(=O)C(C)(C)C)CC2)cc1 (centres unmarked) [Ia-9] | 11 | 0.94
20 | CCCc1ccc(NC(=O)C2CCC(NS(=O)(=O)C(C)(C)C)CC2)cc1 (centres unmarked) [Ia-10] | 2.7 | 0.47
21 | CC(C)c1ccc(NC(=O)C2CCC(NS(=O)(=O)C(C)(C)C)CC2)cc1 (centres unmarked) [Ia-11] | 7.2 | 0.64
22 | CC(C)(C)c1ccc(NC(=O)C2CCC(NS(=O)(=O)C(C)(C)C)CC2)cc1 (centres unmarked) [Ia-13] | 3.3 | 1.5
23 | CC(C)(C)S(=O)(=O)NC1CCC(C(=O)Nc2ccc(Cl)cc2)CC1 (centres unmarked) [Ia-14] | 28 | 4.8

Row | Compound | IC50 (human NPY Y5 receptor [1]) [nM] | IC50 (human NPY Y5 receptor [2]) [nM]
24 | CC(C)(C)S(=O)(=O)NC1CCC(C(=O)Nc2ccc(F)c(F)c2F)CC1 (centres unmarked) [Ia-24] | 74 | 5.2
25 | C[C@@H]1CN(c2ccc(NC(=O)C3CCC(NS(=O)(=O)C(C)(C)C)CC3)cc2Cl)C[C@H](C)O1 (some centres unmarked) [Ia-25] | 18 | 1.1
26 | COc1ccc(NC(=O)C2CCC(NS(=O)(=O)C(C)(C)C)CC2)cc1F (centres unmarked) [Ia-36] | 86 | 1.6
27 | C[C@@H]1C[C@@H](C)CN(c2ccc(NC(=O)C3CCC(NS(=O)(=O)C(C)(C)C)CC3)cc2)C1 (some centres unmarked) [Ia-38] | 2.2 | 1
28 | CC(C)(C)S(=O)(=O)NC1CCC(C(=O)Nc2cccc(Cl)c2)CC1 (centres unmarked) [Ia-41] | 9 | 2.5
29 | C[C@@H]1CN(c2ccc(NC(=O)C3CCC(NS(=O)(=O)C(C)(C)C)CC3)cc2)C[C@@H](C)O1 (some centres unmarked) [Ia-42] | 20 | 3.6
30 | C[C@@H]1CN(S(=O)(=O)c2ccc(NC(=O)C3CCC(NS(=O)(=O)C(C)(C)C)CC3)cc2)C[C@H](C)O1 (some centres unmarked) [Ia-44] | 27 | 4.8
31 | CCOCCN(CCOCC)c1ccc(NC(=O)C2CCC(NS(=O)(=O)C(C)(C)C)CC2)cc1 (centres unmarked) [Ia-45] | 42 | 4.8
32 | Cc1ccc2nc(-c3ccc(NC(=O)C4CCC(NS(=O)(=O)C(C)(C)C)CC4)cc3)sc2c1 (centres unmarked) [Ia-46] | 8.3 | 0.87
33 | CC(C)[C@@H]1CN(c2ccc(NC(=O)C3CCC(NS(=O)(=O)C(C)(C)C)CC3)cc2)CCO1 (some centres unmarked) [Ia-47] | 3.8 | 0.82
34 | CCC1(CC)CN(c2ccc(NC(=O)C3CCC(NS(=O)(=O)C(C)(C)C)CC3)cc2)CCO1 (centres unmarked) [Ia-48] | 6.1 | 1.2
35 | CC(C)S(=O)(=O)NC1CCC(C(=O)Nc2ccc(N3C[C@@H](C)O[C@@H](C)C3)c(F)c2)CC1 (some centres unmarked) [Ia-49] | 83 | 2.6
36 | CC(C)(C)S(=O)(=O)NC1CCC(C(=O)Nc2ccc(N3CCC(=O)CC3)cc2)CC1 (centres unmarked) [Ia-52] | 22 | 1.9
37 | CC(C)(C)S(=O)(=O)NC1CCC(C(=O)Nc2ccc(C(=O)c3ccccc3)cc2)CC1 (centres unmarked) [Ia-53] | 8.1 | 0.22
38 | C[C@@H]1CN(S(=O)(=O)c2cccc(NC(=O)C3CCC(NS(=O)(=O)C(C)(C)C)CC3)c2)C[C@H](C)O1 (some centres unmarked) [Ia-55] | 27 | 1.1
39 | CC(C)(O)c1ccc(NC(=O)C2CCC(NS(=O)(=O)C(C)(C)C)CC2)cc1 (centres unmarked) [Ia-56] | 96 | 2.3
40 | CC(O)(c1ccccc1)c1ccc(NC(=O)C2CCC(NS(=O)(=O)C(C)(C)C)CC2)cc1 (centres unmarked) [Ia-57] | 31 | 0.93
41 | CC(C)(C)S(=O)(=O)Nc1ccc(NC(=O)C2CCC(NS(=O)(=O)C(C)(C)C)CC2)cc1 (centres unmarked) [Ia-58] | 110 | 2.5
42 | CC(C)(C)S(=O)(=O)NC1CCC(C(=O)Nc2cnc(-c3ccccc3)cn2)CC1 (centres unmarked) [Ia-59] | 16 | 0.71
43 | CC(=O)c1cc2cc(NC(=O)C3CCC(NS(=O)(=O)C(C)(C)C)CC3)ccc2oc1=O (centres unmarked) [Ia-60] | 10 | 0.95
44 | CN1C(=O)c2ccc(NC(=O)C3CCC(NS(=O)(=O)C(C)(C)C)CC3)cc2C1=O (centres unmarked) [Ia-61] | 19 | 0.68
45 | CC(C)(C)S(=O)(=O)NC1CCC(C(=O)Nc2ccc(NS(C)(=O)=O)cc2)CC1 (centres unmarked) [Ia-63] | 370 | 3.9
46 | CC(C)(C)S(=O)(=O)NC1CCC(C(=O)Nc2ccc(NS(=O)(=O)c3ccccc3)cc2)CC1 (centres unmarked) [Ia-64] | 96 | 7.1
